Test results from US8785488B2 (Exelixis Patent Company LLC, priority 2009, dated 2014).

Target: T1, human TGR5 (h-TGR5) (Homo sapiens, UniProt Q8TDU6)
T1 construct: expressed in transfected cells
T1 sequence (Q8TDU6 1-330): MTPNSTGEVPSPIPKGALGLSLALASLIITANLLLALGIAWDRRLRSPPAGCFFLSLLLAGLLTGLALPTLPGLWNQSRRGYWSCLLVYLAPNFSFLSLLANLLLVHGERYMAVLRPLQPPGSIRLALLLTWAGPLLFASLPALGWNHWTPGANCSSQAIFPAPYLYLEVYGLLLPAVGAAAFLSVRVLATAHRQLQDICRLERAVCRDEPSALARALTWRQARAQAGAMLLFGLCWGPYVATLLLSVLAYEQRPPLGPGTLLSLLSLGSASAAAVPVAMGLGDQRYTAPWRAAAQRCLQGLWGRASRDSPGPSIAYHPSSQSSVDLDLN
Experiment: TGR5/CRE-Luciferiase Assay (HEK 293 hTGR5/CRE-Luc cells)
Assay type: cell-based
Details: h-TGR5 CRE-Luc EC50, Table 1; read-out: CRE-Luc (EC50)
Method: Compounds were serially diluted in DMEM containing 5% DMSO and 5 μL of compound or media alone was transferred to each well and plates were incubated for 6 hours. Following incubation, 30 μL of lysis/luciferase buffer was added to each well. The luciferase activity was then measured on the EnVision™ plate reader and the dose response data was analyzed using ActivityBase.
In the following tables, EC50 values determined according to the TGR5 cAMP Assay described herein (cAMP); EC50 values determined according to the TGR5/CRE-Luciferiase Assay described herein (CRE-Luc). […] The following compounds in Tables 1 and 2 were made by using procedures described in the above Schemes and Examples, and, where applicable, by making any necessary substitutions of known materials that one skilled in the art would ordinarily understand how to do.

EC50 [nM]	Compound
100 to 1000	COc1ccc(C(C)(C)c2cnc(SCc3c(F)cccc3C(=O)O)n2-c2ccc(F)cc2)cc1OC [2-({[5-{1-[3,4-bis(methyloxy)phenyl]-1-methylethyl}-1-(4-fluorophenyl)-1H-imidazol-2-yl]thio}methyl)-3-fluorobenzoic acid]
1000 to 10000	CC(C)(c1ccc(Cl)c(Cl)c1)c1cnc(COCc2ccc(F)cc2Cl)n1-c1ccc(F)cc1 [2-({[(2-chloro-4-fluorophenyl)methyl]oxy}methyl)-5-[1-(3,4-dichlorophenyl)-1-methylethyl]-1-(4-fluorophenyl)-1H-imidazole]
1000 to 10000	COc1cc(C(C)(C)c2cnc(SCC3CCN(CCO)CC3)n2-c2ccc(F)cc2)ccc1Cl [2-[4-({[5-{1-[4-chloro-3-(methyloxy)phenyl]-1-methylethyl}-1-(4-fluorophenyl)-1H-imidazol-2-yl]thio}methyl)piperidin-1-yl]ethanol]
100 to 1000	CC(C)(Oc1ccc(C(C)(C)c2cnc(SCc3ccc(F)cc3Cl)n2-c2ccc(F)cc2)cc1Cl)C(=O)O [2-[(2-chloro-4-{1-[2-{[(2-chloro-4-fluorophenyl)methyl]thio}-1-(4-fluorophenyl)-1H-imidazol-5-yl]-1-methylethyl}phenyl)oxy]-2-methylpropanoic acid]
100 to 1000	CCN(CC)CCOc1cc(C(C)(C)c2cnc(SCc3c(F)cccc3Cl)n2-c2ccc(F)cc2)ccc1Cl [2-[(2-chloro-5-{1-[2-{[(2-chloro-6-fluorophenyl)methyl]thio}-1-(4-fluorophenyl)-1H-imidazol-5-yl]-1-methylethyl}phenyl)oxy]-N,N-diethylethanamine]
1000 to 10000	CN(C)CCOc1ccc(C(C)(C)c2cnc(SCc3c(F)cccc3Cl)n2-c2ccc(F)cc2)cc1 [2-[(4-{1-[2-{[(2-chloro-6-fluorophenyl)methyl]thio}-1-(4-fluorophenyl)-1H-imidazol-5-yl]-1-methylethyl}phenyl)oxy]-N,N-dimethylethanamine]
100 to 1000	CC(C)(c1ccc(OCCO)cc1)c1cnc(SCc2c(F)cccc2Cl)n1-c1ccc(F)cc1 [2-[(4-{1-[2-{[(2-chloro-6-fluorophenyl)methyl]thio}-1-(4-fluorophenyl)-1H-imidazol-5-yl]-1-methylethyl}phenyl)oxy]ethanol]
1000 to 10000	CC(C)(c1ccc(Cl)c(Cl)c1)c1cnc(/C=C/c2c(F)cccc2Cl)n1-c1ccc(F)cc1 [2-[(E)-2-(2-chloro-6-fluorophenyl)ethenyl]-5-[1-(3,4-dichlorophenyl)-1-methylethyl]-1-(4-fluorophenyl)-1H-imidazole]
100 to 1000	CC(C)(c1ccc(Cl)c(Cl)c1)c1cnc(SCc2c(F)cccc2C(=O)O)n1-c1ccc(F)cc1 [2-[({5-[1-(3,4-dichlorophenyl)-1-methylethyl]-1-(4-fluorophenyl)-1H-imidazol-2-yl}thio)methyl]-3-fluorobenzoic acid]
100 to 1000	CC(C)(c1ccc(Cl)c(Cl)c1)c1cnc(SCc2ccc(F)cc2C(N)=O)n1-c1ccc(F)cc1 [2-[({5-[1-(3,4-dichlorophenyl)-1-methylethyl]-1-(4-fluorophenyl)-1H-imidazol-2-yl}thio)methyl]-5-fluorobenzamide]
100 to 1000	CC(C)(c1ccc(Cl)c(Cl)c1)c1cnc(SCc2ccc(F)cc2S(N)(=O)=O)n1-c1ccc(F)cc1 [2-[({5-[1-(3,4-dichlorophenyl)-1-methylethyl]-1-(4-fluorophenyl)-1H-imidazol-2-yl}thio)methyl]-5-fluorobenzenesulfonamide]
100 to 1000	CC(C)(c1ccc(Cl)c(Cl)c1)c1cnc(SCc2ccc(F)cc2C(=O)O)n1-c1ccc(F)cc1 [2-[({5-[1-(3,4-dichlorophenyl)-1-methylethyl]-1-(4-fluorophenyl)-1H-imidazol-2-yl}thio)methyl]-5-fluorobenzoic acid]
100 to 1000	CC(C)(c1ccc(Cl)c(Cl)c1)c1cnc(SCc2ccc(F)cc2C#N)n1-c1ccc(F)cc1 [2-[({5-[1-(3,4-dichlorophenyl)-1-methylethyl]-1-(4-fluorophenyl)-1H-imidazol-2-yl}thio)methyl]-5-fluorobenzonitrile]
